In patent US20260183399A1, “METHOD FOR MODULATING KINASE ACTIVITY AND USE THEREOF” (CENTER FOR EXCELLENCE IN MOLECULAR CELL SCIENCE, CHINESE …, priority 2022, published 2026):

What was measured:
[1] = molecular target: T1, recombinant human PGK1 protein (Homo sapiens, UniProt P00558); assay: In vitro enzyme activity of PGK1 (ATP detection kit, IC50 inhibition curve); type: biochemical; conditions: S33 0, 1, 3, 5, 7, 10, 30 μM; 37° C. for 25 minutes; FIG. 1F
T1 construct: made in house; host or cells: Escherichia coli
T1 sequence (P00558 1-417): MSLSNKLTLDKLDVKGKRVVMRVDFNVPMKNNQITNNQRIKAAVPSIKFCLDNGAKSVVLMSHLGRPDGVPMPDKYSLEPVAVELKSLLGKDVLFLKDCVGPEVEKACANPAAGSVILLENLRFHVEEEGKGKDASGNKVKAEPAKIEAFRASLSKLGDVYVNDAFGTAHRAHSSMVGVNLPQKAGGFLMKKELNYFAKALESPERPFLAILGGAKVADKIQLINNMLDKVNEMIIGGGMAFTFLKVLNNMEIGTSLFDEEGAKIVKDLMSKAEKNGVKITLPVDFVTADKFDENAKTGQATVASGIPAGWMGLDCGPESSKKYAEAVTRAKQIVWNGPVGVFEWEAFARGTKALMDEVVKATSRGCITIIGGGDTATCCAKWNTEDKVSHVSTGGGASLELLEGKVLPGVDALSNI
Experimental: A substrate buffer mixture with a final concentration of 10 mM KH2PO4, pH7.0, 2 mM GAP, 0.6 mM β-NAD, 0.4 mM ADP, 10 mM MgSO4, 200 mM Glycine, and 0.01 μg/μL GAPDH was prepared. The purified hPGK1 recombinant protein was diluted to 0.2 ng/μL. Inhibitors were added to the protein and a concentration gradient was set up. Each reaction was added with 100 μl of substrate and a mixture of 100 μl hPGK1 protein and inhibitor, and reacted at 37° C. for 25 minutes. After centrifuged at 10000 rpm for 10 minutes at 4° C., 100 μl of supernatant was taken. In the ATP detection kit (Beyotime S0026), the ATP detection solution was diluted with ATP detection diluent at a ratio of 1:10. In a 96 well blank plate, each well was added with 100 μl of diluted detection solution, and let it stand at room temperature for 5 minutes, added with 100 μl of supernatant from enzyme activity reaction, and reacted for 5 seconds, and a microplate reader was used to read the fluorescence value. The relative enzyme activity was calculated based on fluorescence values and IC50 values were calculated using GraphPad nonlinear regression fitting.
The compound (S33, patent number: ZL201610826187. X) reported in the previous patent is a PGK1 inhibitor (FIG. 1E), and we determined the inhibitory activity of compound S33 on PGK1. […]

[2] = tested on: AMPK pathway (AMPK α-catalytic subunit and ACC1 phosphorylation) in HeLa and 293T cells; assay: S33 treatment of HeLa and 293T cells, Western blot of AMPK pathway; type: cell-based; conditions: 2, 5 and 10 μM, 2 hours, dose-dependent, FIG. 1G
Experimental: In order to investigate the regulatory effect of PGK1 inhibition on AMPK pathway, different concentrations of S33 (2, 5, and 10 μM, respectively) were added to the culture supernatants of HeLa and 293T cells, and treated for 2 hours. Cell lysate was collected and the changes in specific proteins and in AMPK α-catalytic subunit phosphorylation sites, as well as the phosphorylation of the classical substrate ACC1, downstream of the AMPK pathway, were detected by western blot.

LKB1 kinase = molecular target: T2, LKB1 kinase (Homo sapiens, UniProt Q15831); assay: In vitro kinase experiment with LKB1 kinase (excluding STRAD1 and MO25) and His-AMPK α1; type: biochemical; conditions: metabolite 100 μM; FIG. 1J
T2 construct: the general method says FLAG-LKB1 instead) (N); made in house; host or cells: HEK293T (293T) cells, transfected; immunoprecipitation
T2 sequence (Q15831 1-433): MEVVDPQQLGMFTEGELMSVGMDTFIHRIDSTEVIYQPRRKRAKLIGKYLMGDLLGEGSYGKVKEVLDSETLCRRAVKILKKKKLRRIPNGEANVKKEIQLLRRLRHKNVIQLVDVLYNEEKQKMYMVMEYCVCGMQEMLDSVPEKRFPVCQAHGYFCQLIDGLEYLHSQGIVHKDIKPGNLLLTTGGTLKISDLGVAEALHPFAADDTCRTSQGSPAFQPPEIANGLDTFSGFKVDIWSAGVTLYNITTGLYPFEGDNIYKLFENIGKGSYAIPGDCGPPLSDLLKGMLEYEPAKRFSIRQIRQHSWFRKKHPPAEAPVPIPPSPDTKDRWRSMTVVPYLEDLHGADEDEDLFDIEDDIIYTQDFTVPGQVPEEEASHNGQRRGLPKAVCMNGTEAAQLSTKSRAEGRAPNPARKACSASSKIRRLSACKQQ
Experimental: (§1) The final reaction system for kinase experiment was: 50 mM Tris HCl, 10 mM MgCl2, 1 mM DTT, and 100 μM ATP. HEK293T cells were co-transfected with equal amounts of GST-LKB1, FLAG-STRAD, MYC-MO25 plasmids or solely transfected with FLAG-LKB1 plasmid. The cells were collected, processed for immunoprecipitation using GST beads or FLAG beads, washed three times with cell lysis buffer containing NP-40, and washed twice with kinase reaction buffer. The His-AMPK protein was induced and purified using E. coli BL21 competent cells. The kinase was incubated with metabolites at 100 μM at room temperature for 15 minutes before reaction, then added with reaction buffer and His-AMPK protein, and reacted at […] for 30 minutes. The phosphorylation of AMPK protein was detected by Western blot.
The final reaction system for the kinase experiment was 50 mM Tris-HCl, 10 mM MgCl2, 1 mM DTT, and 100 μM ATP. […] The kinase complex was pre-incubated with metabolites at room temperature for 15 minutes before reaction. Then the reaction buffer and His-AMPK protein were added, and reacted at 37° C. for 30 minutes. The phosphorylation of AMPK protein was detected by Western blot.

[3] = tested on: AMPK α-catalytic subunit phosphorylation in 293T cells; assay: Metabolite treatment of glucose-starved 293T cells, Western blot of AMPK phosphorylation; type: cell-based; conditions: glucose starvation 2 hours
Experimental: Cells were subjected to glucose starvation treatment using glucose free culture medium for 2 hours. The corresponding metabolites were added to the culture medium according to the instructions shown in FIG. 1C and FIG. 1D, so that their concentration in the culture medium reached the labeled level, if there was no labeling, the concentration of metabolites in the culture medium was […]. After treatment, cells were collected to prepare lysis buffer, and the changes in specific proteins and phosphorylation of specific sites were detected by Western blot.
When the expression and function of these metabolic enzymes are inhibited, their corresponding products are decreased. Therefore, we speculate that there may be a mechanism by which AMPK is regulated by metabolite molecules in the glycolytic metabolic pathway, and the activation level of AMPK is related to metabolite content. To verify this hypothesis, we added different doses of exogenous 3-phosphoglycerate (3-PG) to 293T cells subjected to glucose starvation treatment (activation of AMPK signaling pathway). […] After treatment, cells were collected to prepare lysate, and the changes in specific proteins and the changes in phosphorylation sites of AMPK α-catalytic subunit were detected by Western blot.

[4] = molecular target: T3, LKB1-STRAD1-MO25 kinase complex (Homo sapiens, UniProt Q15831); assay: In vitro kinase experiment with LKB1 kinase complex and His-AMPK α1; type: biochemical
T3 construct: GST (N); made in house; host or cells: HEK293T (293T) cells, co-transfected
T3 sequence (Q15831 1-433): T2 sequence (Q15831 1-433)
T3 sequence (Q7RTN6 1-431 partner): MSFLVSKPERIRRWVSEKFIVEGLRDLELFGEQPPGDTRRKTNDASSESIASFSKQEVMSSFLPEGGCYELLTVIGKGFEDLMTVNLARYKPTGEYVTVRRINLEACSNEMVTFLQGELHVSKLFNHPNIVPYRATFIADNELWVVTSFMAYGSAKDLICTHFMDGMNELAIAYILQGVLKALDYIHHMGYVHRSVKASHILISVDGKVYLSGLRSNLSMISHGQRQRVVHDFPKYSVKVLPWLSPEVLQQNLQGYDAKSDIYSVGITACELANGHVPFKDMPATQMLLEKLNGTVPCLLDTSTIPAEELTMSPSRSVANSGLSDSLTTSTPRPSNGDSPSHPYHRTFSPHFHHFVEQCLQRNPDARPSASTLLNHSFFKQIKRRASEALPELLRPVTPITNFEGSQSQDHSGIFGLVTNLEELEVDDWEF
T3 sequence (Q9Y376 1-341 partner): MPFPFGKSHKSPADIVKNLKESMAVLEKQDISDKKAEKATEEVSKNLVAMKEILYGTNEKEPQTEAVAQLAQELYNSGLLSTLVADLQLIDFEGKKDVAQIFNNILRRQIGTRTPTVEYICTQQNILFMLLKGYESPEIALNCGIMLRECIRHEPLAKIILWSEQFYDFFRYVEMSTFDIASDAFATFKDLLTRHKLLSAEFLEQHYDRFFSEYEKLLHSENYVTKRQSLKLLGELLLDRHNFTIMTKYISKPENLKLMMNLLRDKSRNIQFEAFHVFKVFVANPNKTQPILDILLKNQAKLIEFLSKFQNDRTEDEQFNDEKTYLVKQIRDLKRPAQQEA
Experimental: as §1
Given that LKB1 is a key upstream kinase that phosphorylates and activates the AMPK a subunit, we speculate that the aforementioned metabolites may affect the phosphorylation activation of AMPK a subunit by LKB1 kinase or LKB1 kinase complex. To verify this hypothesis, GST-LKB1, FLAG-STRAD1, and MYC-MO25 were co-transfected into 293T cells (2 μg of each expression plasmid, and transfected into about 7×10^6 cells). After 48 hours, cells were collected and lysed, and then the LKB1-STRAD1-MO25 kinase complex was subjected to glutathione-agarose bead affinity purification, and co-incubated with the recombinant His-AMPK α1 subunit expressed in E. coli for in vitro kinase experiments. The final reaction system for kinase experiment was: 50 mM Tris HCl, 10 mM MgCl2, 1 mM DTT, 100 μM ATP. At the same time, metabolites such as 3-phosphoglyceraldehyde (GAP) or 3-phosphoglycerate (3-PG) were added to 100 μM according to the diagram (as shown in FIG. 1H), or to a concentration of 50-400 μM as shown in the diagram (as shown in FIG. 1I). The kinase complex was pre-incubated with metabolites at room temperature for 15 minutes before reaction. Then the reaction buffer and His-AMPK protein were added, and reacted at 37° C. for 30 minutes. The phosphorylation of AMPK protein was detected by Western blot.

Row | SMILES | phosphorylation of AMPK α1 by LKB1 kinase (LKB1 kinase) | phosphorylation of AMPK α1 by LKB1 kinase complex ([4]; metabolite 100 μM, FIG. 1H) | further results
1 | COc1cc2nc(N3CCC(N(C)C(=O)C4CCCO4)CC3)nc(N3CCOCC3)c2cc1Cl (stereo not drawn) [S33] |  |  | inhibitory activity of compound on PGK1 [1]: effective inhibitor of PGK1; ACC1 phosphorylation [2]: upregulate; AMPK α-catalytic subunit phosphorylation [2]: upregulate
2 | O=C(O)[C@@H](CO)OP(=O)(O)O [2-phosphoglycerate] | significantly inhibit |  | AMPK α-catalytic subunit phosphorylation signaling ([3]; metabolite 200 μM, FIG. 1D): inhibitory effects
3 | O=C(COP(=O)(O)O)[C@@H](O)[C@H](O)[C@H](O)COP(=O)(O)O [1,6-fructose diphosphate] | had no such effect |  | 
4 | O=C(O)[C@H](O)COP(=O)(O)O [3-phosphoglycerate] | significantly inhibit | strongly inhibited | intracellular AMPK α-catalytic subunit phosphorylation signaling ([3]; metabolite 100-800 μM, FIG. 1C): significantly inhibited intracellular AMPK α-catalytic subunit phosphorylation signaling in a dose-dependent manner; phosphorylation of AMPK α1 by LKB1 kinase complex ([4]; metabolite 50-400 μM, FIG. 1I): inhibits the phosphorylation of AMPK α1 by LKB1 kinase complex in a dose-dependent manner
5 | O=CC(O)COP(=O)(O)O (stereo not drawn) [3-phosphoglyceraldehyde] | had no such effect | had no such effect | 
